Data on 2 compounds can be found in patent US8697730B2, “5-lipoxygenase activating protein (FLAP) inhibitor” (Panmira Pharmaceuticals, LLC, priority 2007, dated 2014).

A short description of data set [1]: Examination of liver weight change in mice. The note with it: oral 250 mg/kg daily for 4 days, compared with vehicle control.
Experimental: Twenty-four hours following the final administration mice were placed into an enclosed Plexiglas chamber and exposed to CO2 for a period of 1-2 minutes or until breathing ceased. They were then removed and blood was taken via a cardiac puncture and cervical dislocation was performed. Subjects were next placed in a supine position and a midline incision made. All organs were inspected and the livers removed by careful dissection. Liver weights were recorded as well as any gross abnormalities.
In data set [2] the test system is allergen-induced early and late phases of lung-volume decline. The conditions noted are these: clinical trials / allergen-challenge studies; cited from earlier work.
Data set [3] relates to chronic asthma. The conditions noted are these: chronic asthma studies; cited from earlier work.
Data set [4] has as its target CYP3A4 (Homo sapiens, UniProt P08684). The conditions noted are these: microsomes.
For data set [5], the target named is CYP2D6 (Homo sapiens, UniProt P10635). The note with it: microsomes.
CYP2D6, sequence (P10635 whole entry): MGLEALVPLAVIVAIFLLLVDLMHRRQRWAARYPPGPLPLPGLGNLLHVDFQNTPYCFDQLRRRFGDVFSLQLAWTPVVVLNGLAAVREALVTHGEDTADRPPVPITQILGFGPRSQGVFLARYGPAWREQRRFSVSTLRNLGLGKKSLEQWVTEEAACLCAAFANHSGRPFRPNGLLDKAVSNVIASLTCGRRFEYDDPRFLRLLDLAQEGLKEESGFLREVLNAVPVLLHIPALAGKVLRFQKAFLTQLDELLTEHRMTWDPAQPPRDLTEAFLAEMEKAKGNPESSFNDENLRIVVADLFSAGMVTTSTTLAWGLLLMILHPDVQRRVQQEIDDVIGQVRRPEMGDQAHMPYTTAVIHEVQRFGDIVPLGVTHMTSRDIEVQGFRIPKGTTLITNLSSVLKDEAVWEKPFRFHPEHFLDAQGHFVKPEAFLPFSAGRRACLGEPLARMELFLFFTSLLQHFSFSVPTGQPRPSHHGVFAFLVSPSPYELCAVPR
Data set [6] has as its target CYP2C9 (Homo sapiens, UniProt P11712). The note with it: microsomes.
The subject of data set [7] is whole blood ionophore-stimulated leukotriene LTB4. The data set is described as follows: Phase 1 study, whole blood ionophore-stimulated LTB4. In kind it is in vivo, human. The conditions noted are these: profile that may be obtained from a single dose administration to a human, dose not stated. The method, then: (§1) Pharmacodynamics: Whole blood ionophore-stimulated leukotriene LTB4 and urinary LTE4 production are assayed by ELISA and mass spectrometry, respectively.
(§2) Obtain pre-dose fasting blood samples for hematology determinations. Obtain pre-dose fasting blood samples for serum chemistry determinations. Obtain pre-dose blood samples (5 mL EDTA and 4 mL heparinized) for baseline PK and LTB4. Collect ‘spot’ urine prior to study drug administration for baseline (pre-dose) LTE4. Administer study drug. […] Collect blood samples (2 mL heparinized) for LTB4 at 0.5, 1, 2, 3, 4, 6, 8, and 12 hours. Collect urine for LTE4 for the following separate intervals: 0-3, 3-6, 6-9, and 9-12 hours. For twice daily dosing group (if conducted): administer study drug 12 hours±30 minutes after prior dose, preceded by ≧2 hours fast.
(§3) Obtain pre-dose fasting blood samples for hematology determinations. Obtain pre-dose fasting blood samples for serum chemistry determinations. […] Collect blood samples (2 mL heparinized) for LTB4 at 24 hours after the first study drug administration; 4 mL blood will be collected at this time point in the Single Dose Phase. Collect ‘spot’ urine sample for LTE4 at 24 and 36 hours after first study drug administration.
(§4) Obtain pre-dose blood samples (5 mL EDTA and 2 mL heparinized) for PK and LTB4. Collect pre-dose urine for LTE4. Administer study drug (last dose of drug). […] Collect blood samples (2 mL heparinized) for LTB4 at 0.5, 1, 2, 3, 4, 6, 8, and 12 hours. Collect urine for LTE4 for the following separate intervals: 0-3, 3-6, 6-9, and 9-12 hours after study drug administration.
(§5) Record vital signs 24 hours after Day 11 study drug administration. […] Collect blood sample (4 mL heparinized) for LTB4 at 24 hours after Day 11 study drug administration. Collect ‘spot’ urine sample for LTE4 at 24 hours after Day 11 study drug administration.
(§6) Whole blood ionophore-stimulated leukotriene LTB4 and urinary LTE4 production were assayed by ELISA and mass spectrometry, respectively.

In data set [8] the test system is CYP2C9. The conditions noted are these: tested at 10 μM; diclofenac substrate.
The target of data set [9] is CYP2C19 (Homo sapiens, UniProt P33261). The conditions noted are these: microsomes.
CYP2C19, sequence (P33261 whole entry): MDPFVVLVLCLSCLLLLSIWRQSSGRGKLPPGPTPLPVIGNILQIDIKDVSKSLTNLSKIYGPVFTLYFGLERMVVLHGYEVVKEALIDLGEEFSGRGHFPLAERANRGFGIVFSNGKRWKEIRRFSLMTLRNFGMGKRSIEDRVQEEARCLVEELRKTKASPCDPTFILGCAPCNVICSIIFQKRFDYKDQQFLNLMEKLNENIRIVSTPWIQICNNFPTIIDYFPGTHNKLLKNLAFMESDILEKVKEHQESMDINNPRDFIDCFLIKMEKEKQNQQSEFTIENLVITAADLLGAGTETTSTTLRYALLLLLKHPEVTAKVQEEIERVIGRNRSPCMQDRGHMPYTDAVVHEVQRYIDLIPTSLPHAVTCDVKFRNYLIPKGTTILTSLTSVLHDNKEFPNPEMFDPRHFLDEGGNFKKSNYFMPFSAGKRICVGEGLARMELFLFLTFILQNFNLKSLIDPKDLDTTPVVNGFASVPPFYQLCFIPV
The test system of data set [10] is urinary LTE4 production. Nature of the data set: Phase 1 study, urinary LTE4. The class given is in vivo, human. The conditions noted are these: profile that may be obtained from a single dose administration to a human, dose not stated. The method, then: as §1, §2, §3, §4, §5, §6
For data set [11], the target named is T1, CYP1A2 (Homo sapiens, UniProt P05177).
T1 sequence (P05177 1-516): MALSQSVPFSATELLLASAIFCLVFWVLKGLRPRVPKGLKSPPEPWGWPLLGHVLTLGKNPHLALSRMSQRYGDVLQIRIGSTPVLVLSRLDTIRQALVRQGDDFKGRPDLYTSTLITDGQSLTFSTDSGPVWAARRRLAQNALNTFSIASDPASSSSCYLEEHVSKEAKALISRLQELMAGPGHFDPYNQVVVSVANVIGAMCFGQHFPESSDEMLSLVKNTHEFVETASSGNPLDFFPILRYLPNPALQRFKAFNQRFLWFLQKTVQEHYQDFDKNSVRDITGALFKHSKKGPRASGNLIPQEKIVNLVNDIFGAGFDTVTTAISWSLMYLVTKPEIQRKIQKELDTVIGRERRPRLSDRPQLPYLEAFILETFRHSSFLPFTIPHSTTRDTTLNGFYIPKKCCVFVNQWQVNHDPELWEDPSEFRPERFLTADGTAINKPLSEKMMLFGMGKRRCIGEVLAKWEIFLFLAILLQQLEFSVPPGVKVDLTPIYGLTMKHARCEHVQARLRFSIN

CYP3A4, sequence (P08684 whole entry): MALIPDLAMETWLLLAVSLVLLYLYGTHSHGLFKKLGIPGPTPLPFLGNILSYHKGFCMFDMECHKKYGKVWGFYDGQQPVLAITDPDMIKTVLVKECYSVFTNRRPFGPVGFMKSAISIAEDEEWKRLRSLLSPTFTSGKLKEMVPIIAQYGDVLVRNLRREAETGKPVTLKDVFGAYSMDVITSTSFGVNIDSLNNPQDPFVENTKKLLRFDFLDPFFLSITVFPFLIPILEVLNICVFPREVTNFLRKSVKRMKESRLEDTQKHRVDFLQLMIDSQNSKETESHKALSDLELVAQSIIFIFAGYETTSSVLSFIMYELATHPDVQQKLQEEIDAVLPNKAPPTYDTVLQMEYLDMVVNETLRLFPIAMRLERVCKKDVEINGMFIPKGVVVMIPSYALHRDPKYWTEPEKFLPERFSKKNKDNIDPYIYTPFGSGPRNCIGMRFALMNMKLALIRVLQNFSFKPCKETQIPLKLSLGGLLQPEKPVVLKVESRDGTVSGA
CYP2C9 (Homo sapiens, UniProt P11712), sequence (P11712 whole entry): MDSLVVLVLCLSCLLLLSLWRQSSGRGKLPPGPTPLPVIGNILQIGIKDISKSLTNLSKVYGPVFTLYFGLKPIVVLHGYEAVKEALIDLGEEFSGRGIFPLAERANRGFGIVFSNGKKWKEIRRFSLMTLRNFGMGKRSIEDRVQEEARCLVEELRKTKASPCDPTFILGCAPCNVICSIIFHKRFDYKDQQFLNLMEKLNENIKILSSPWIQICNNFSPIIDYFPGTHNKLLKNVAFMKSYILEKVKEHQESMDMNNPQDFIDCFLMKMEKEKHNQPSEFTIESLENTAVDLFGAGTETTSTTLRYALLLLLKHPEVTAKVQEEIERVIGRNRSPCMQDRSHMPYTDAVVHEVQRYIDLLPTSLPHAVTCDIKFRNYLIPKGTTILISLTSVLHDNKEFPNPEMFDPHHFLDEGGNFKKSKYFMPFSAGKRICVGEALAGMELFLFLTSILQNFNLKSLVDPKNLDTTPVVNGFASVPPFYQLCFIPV

The compound `CC(c1cc2ccccc2s1)N(O)C(N)=O` (stereo not shown) [Zileuton] yielded a liver weight alteration in data set [1] of 36.0%. The efficacy in words result in data set [2] is listed as “not effective”; in data set [3], “exhibited clinical efficacy”.
In the case of `COc1ccc(-c2ccc(Cn3c(CC(C)(C)C(=O)O)c(SC(C)(C)C)c4cc(OCc5ccccn5)ccc43)cc2)cn1` [sodium 3-[5-(pyrid-2-ylmethoxy)-3-(2-methyl-2-propylthio)-1-] [sodium 3-[5-(pyridin-2-ylmethoxy)-3-(2-methyl-2-propylthio)-1-[4-(2-methoxypyridin-5-yl)benzyl]-indol-2-yl]-2,2-dimethyl-propionate], in data set [4] (human, pH 7.4), the IC50 (usually the midpoint of a concentration-inhibition curve) was more than 50 µM. The inhibition in words result is on record as “No apparent inhibition” in data set [4]; “No apparent inhibition” in data set [5]; “No apparent inhibition” in [6]; “weakly inhibited” in data set [9]; “No apparent inhibition” in [11]. In addition, in [7], the “inhibition of blood LTB4 levels at 8 hours (Ionophore Challenge)” value was not below 80%. In data set [7], the “inhibition of blood LTB4 levels at 24 hours (Ionophore Challenge)” value was not below 30%. Also, the “CYP2C9 induction in words” value in [8] is listed as “No apparent induction”. In addition, the “inhibition of urinary LTE4 levels at 24 hours” value in data set [10] was not below 80%.
